Data as given in publication PMC8398081, “Antioxidant Activity, α-Glucosidase Inhibition and UHPLC–ESI–MS/MS Profile of Shmar (Arbutus pavarii Pamp)” (Plants, 2021).

Experiments:
[1] = DPPH free radical scavenging assay; details: 30 min in dark, 517 nm; mean ± SD, n=3
Experimental: The DPPH assay was conducted in accordance with Lee et al. method. Initially, 100 µL of DPPH (5.9 mg in 100 mL ethanol) was mixed with 50 µL of the extracts or fractions. The mixtures were then kept in dark for 30 min at room temperature. The absorbance was measured using microplate reader at 517 nm. Quercetin was used as a positive control in the assay. The scavenging activity was calculated using the equation Scavenging Activity (%) = [(Ac – As)/Ac] × 100%, where (Ac) is the absorbance of the blank reagent while (As) is the absorbance of the tested samples. The analysis was performed in triplicates and the results were described as IC50 value.

[2] = Ferric reducing antioxidant power (FRAP) assay; details: 37 °C, 30 min, 593 nm; FeSO4 standard curve; mean ± SD, n=3
Experimental: The FRAP of extracts and fractions were examined according to Kadum et al. method with slight modifications. […] A volume of 10 μL of methanol extract or fractions was transferred into 96-well microplates, followed by addition of 200 μL FRAP reagent and incubation at 37 °C for 30 min. The absorbance was checked through microplate reader (SPECTRAmax PLUS) at 593 nm. The absorbances of ferrous sulfate solution (FeSO4·7H2O), with a range of concentrations between 0.1 and 1 mM were used for plotting a calibration curve. The ascorbic acid was used as positive control and FRAP was presented as mM Fe (II)/g extract for extracts and mM Fe (II)/g fraction for fractions.

SMILES | DPPH IC50 [1] [µg/mL] | FRAP [2]
O=c1c(O)c(-c2ccc(O)c(O)c2)oc2cc(O)cc(O)c12 [Quercetin] | 8.6 ± 0.70 | –
O=C1O[C@H]([C@@H](O)CO)C(O)=C1O [Ascorbic acid] | – | 180.64 ± 0.01 mmol Fe (II)/g Extract
